Reference: patent US7115662B2, “Certain 5-alkyl-2-arylaminophenylacetic acids and derivatives” (Novartis AG, priority 1997, dated 2006)

test system: gross gastric ulceration; test: gastric tolerability assay; assay type: in vivo; conditions: rat; 100 mg/kg p.o.; four hours after administration
Procedure: The gastric tolerability assay is used to assess gross ulceration in the rat, measured four hours after oral administration of the test compound. The test is carried out as follows: Rats are fasted overnight, administered compound in fortified cornstarch vehicle by gavage, and sacrificed by carbon dioxide inhalation four hours later. The stomachs are removed and gross gastric lesions counted and measured to give the total lesion length per rat. Each experiment contains the following groups (5–6 rats per group): vehicle control, test compounds, and diclofenac as a reference compound. Data are calculated as the mean number of ulcers in a group, the mean length of ulcers (mm) in the group and as the ulcer index (UI). UI=mean length of ulcers in a group×ulcer incidence where ulcer incidence is the fraction of animals in the group with lesions (100% incidence is 1).

**Q.** Which gastric ulcerogenic effect does the source give for `CCc1ccc(Nc2c(F)c(F)cc(F)c2F)c(CC(=O)OCC(=O)O)c1` [6(a), carboxymethyl 5-ethyl-2-(2′,3′,5′,6′-tetrafluoroanilino)phenylacetate] here?
**A.** essentially free of any gastric ulcerogenic effect

test system: intestinal permeability; test: intestinal tolerability (51Cr-EDTA intestinal permeability); assay type: in vivo; conditions: rat; 30 mg/kg p.o.; 51Cr-EDTA urinary excretion over 24 h
Procedure: Intestinal tolerability can be determined by measuring the effect on intestinal permeability. Lack of increase in permeability is indicative of intestinal tolerability. The method used is a modification of a procedure by Davies, et al., Pharm. Res. 1994; 11:1652–1656 and is based on the fact that excretion of orally administered ^51Cr-EDTA, a marker of small intestinal permeability, is increased by NSAIDs. Groups of rats (≧12/group) are administered a single, oral dose of test compound or vehicle by gastric intubation. Immediately following compound dose, each rat is administered ^51Cr-EDTA (5 μCi/rat) by gastric intubation. The rats are placed in individual metabolic cages and given food and water ad libitum. Urine is collected over a 24 hour period. Twenty-four hours after administration of ^51Cr-EDTA the rats are sacrificed. To quantify compound effect on intestinal permeability, the excreted ^51Cr-EDTA measured in the urine of compound treated rats is compared to the excreted ^51Cr-EDTA measured in the urine of vehicle treated rats. Relative permeability is determined by calculating the activity present in each urine sample as a percent of the administered dose after correcting for background radiation.

**Q.** For `CCc1ccc(Nc2c(F)c(F)cc(F)c2F)c(CC(=O)OCC(=O)O)c1` [6(a), carboxymethyl 5-ethyl-2-(2′,3′,5′,6′-tetrafluoroanilino)phenylacetate], which “effect on intestinal permeability” value is on record?
**A.** no effect or only a minimal effect

test system: pain threshold in yeast-inflamed paw; test: Randall-Selitto paw pressure assay; assay type: in vivo, rat; conditions: male Wistar rats; 10 mg/kg orally; 1 h after dosing
Procedure: The analgesic activity of the compounds of the invention is determined using the well-known Randall-Selitto assay.
The Randall-Selitto paw pressure assay measures antinociception (analgesic activity) in inflamed tissue by comparing the pressure threshold in the inflamed paw of the rat after oral administration of test drug with that in the inflamed paw of rats administered corn starch vehicle orally.
Groups of 10 male Wistar rats weighing 40–50 gms are fasted overnight prior to testing. Hyperalgesia is induced by the injection of 0.1 ml of a 20% suspension of Brewer's yeast with a 26 gauge needle into the subplantar region of the right hindpaw. The left paw is not injected and is used as the control paw for determination of hyperalgesia. Vehicle (Fortified corn starch suspension 3%) at 10 ml/kg, reference compound (diclofenac is run in every experiment at the same dose as test compounds) and test compounds at different doses suspended in vehicle at 10 ml/kg are administered orally 2 hours after the yeast injection. The threshold for paw withdrawal is quantified with a Basile Analgesy-meter 1 hour after oral administration of test compounds. The nociceptive threshold is defined as the force in grams at which the rat withdraws its foot or vocalizes. Either vocalization or foot withdrawal is recorded as a response.
The data are analyzed by comparing the mean pain threshold of the corn starch vehicle-treated group for the inflamed and non-inflamed paws to that of individual drug-treated rats. Individual rats in the drug-treated groups and positive control (diclofenac) group are called reactors if the individual pain threshold in each paw exceeds the control group mean threshold by two standard deviations of that mean. The mean pain thresholds of the inflamed paw in the control group are compared to the individual pain thresholds of the inflamed paw in the test drug group. The non-inflamed control mean pressure threshold is compared to the non-inflamed individual pressure thresholds in the test groups. Results are expressed as number of reactors in each test group (n=10) for inflamed and non-inflamed paws. Percentages are calculated by dividing number of reactors by total number of rats used for a compound.

**Q.** For `CCc1ccc(Nc2c(F)c(F)cc(F)c2F)c(CC(=O)OCC(=O)O)c1` [6(a), carboxymethyl 5-ethyl-2-(2′,3′,5′,6′-tetrafluoroanilino)phenylacetate], which “pain threshold in the inflamed paw” value is on record?
**A.** increase the pain threshold

**Q.** And the “pain threshold in the non-inflamed paw” value?
**A.** no threshold elevation

test system: not given; test: not given; conditions: not given

**Q.** With `CCc1ccc(Nc2c(F)c(F)cc(F)c2F)c(CC(=O)OCC(=O)O)c1` [6(a), carboxymethyl 5-ethyl-2-(2′,3′,5′,6′-tetrafluoroanilino)phenylacetate] as the compound, how does the melting point read?
**A.** 151 to 153 °C

**Q.** Which melting point does the source give for `Cc1ccc(Nc2c(F)c(F)cc(F)c2F)c(CC(=O)O)c1` [Example 1(b), 5-methyl-2-(2′,3′,5′,6′-tetrafluoroanilino)phenylacetic acid] here?
**A.** 153 to 156 °C

**Q.** With `Cc1ccc(Nc2c(Cl)cccc2Cl)c(CC(=O)O)c1` [Example 1(c), 5-methyl-2-(2′,6′-dichloroanilino)phenylacetic acid] as the compound, how does the melting point read?
**A.** 168 to 170 °C

**Q.** With `Cc1cc(Cl)c(Nc2ccc(C)cc2CC(=O)O)c(Cl)c1` [Example 1(e), 5-methyl-2-(2′,6′-dichloro-4′-methylanilino)phenylacetic acid] as the compound, how does the melting point read?
**A.** 179 to 182 °C

**Q.** With `Cc1ccc(Nc2c(C)cccc2Cl)c(CC(=O)O)c1` [Example 1(f), 5-methyl-2-(2′-chloro-6′-methylanilino)phenylacetic acid] as the compound, how does the melting point read?
**A.** 138 to 140 °C

**Q.** Which melting point does the source give for `Cc1ccc(Nc2c(F)cc(Cl)cc2Cl)c(CC(=O)O)c1` [Example 1(h), 5-methyl-2-(2′-fluoro-4′,6′-dichloroanilino)phenylacetic acid] here?
**A.** 178 to 180 °C

**Q.** With `Cc1ccc(Nc2c(C)cc(F)cc2Cl)c(CC(=O)O)c1` [Example 1(i), 5-methyl-2-(2′-chloro-4′-fluoro-6′-methylanilino)phenylacetic acid] as the compound, how does the melting point read?
**A.** 154 to 156 °C

**Q.** For `Cc1ccc(Nc2c(F)cc(O)cc2Cl)c(CC(=O)O)c1` [Example 1(j), 5-methyl-2-(2′-chloro-4′-hydroxy-6′-fluoroanilino)phenylacetic acid], which melting point is on record?
**A.** 180 to 182 °C

**Q.** With `CCc1ccc(Nc2c(F)cccc2Cl)c(CC(=O)O)c1` [Example 2(a), 5-ethyl-2-(2′-fluoro-6′-chloroanilino)phenylacetic acid] as the compound, how does the melting point read?
**A.** 147 to 148 °C

**Q.** Which melting point does the source give for `CCc1ccc(Nc2c(C)cccc2Cl)c(CC(=O)O)c1` [Example 2(b), 5-ethyl-2-(2′-chloro-6′-methylanilino)phenylacetic acid] here?
**A.** 125 to 126 °C

**Q.** Which melting point does the source give for `CCc1ccc(Nc2c(F)ccc(F)c2F)c(CC(=O)O)c1` [Example 2(c), 5-ethyl-2-(2′,3′,6′-trifluoroanilino)phenylacetic acid] here?
**A.** 138 to 140 °C

**Q.** With `CCOc1c(F)c(F)c(Nc2ccc(CC)cc2CC(=O)O)c(F)c1F` [Example 2(d), 5-ethyl-2-(2′,3′,5′,6′-tetrafluoro-4′-ethoxyanilino)phenylacetic acid] as the compound, how does the melting point read?
**A.** 131 to 132 °C

**Q.** With `CCc1ccc(Nc2c(F)cc(F)cc2Cl)c(CC(=O)O)c1` [Example 2(e), 5-ethyl-2-(2′-chloro-4′,6′-difluoroanilino)phenylacetic acid] as the compound, how does the melting point read?
**A.** 160 to 162 °C

**Q.** With `CCc1ccc(Nc2c(F)cc(Cl)cc2Cl)c(CC(=O)O)c1` [Example 2(f), 5-ethyl-2-(2′,4′-dichloro-6′-fluoroanilino)phenylacetic acid] as the compound, how does the melting point read?
**A.** 169 to 171 °C

**Q.** With `CCc1ccc(Nc2c(C)cc(Cl)cc2Cl)c(CC(=O)O)c1` [Example 3(b), 5-ethyl-2-(2′,4′-dichloro-6′-methylanilino)phenylacetic acid] as the compound, how does the melting point read?
**A.** 180 to 183 °C

**Q.** For `CCc1ccc(Nc2c(Cl)cccc2Cl)c(CC(=O)O)c1` [Example 3(c), 5-ethyl-2-(2′,6′-dichloroanilino)phenylacetic acid], which melting point is on record?
**A.** 133 to 136 °C

**Q.** With `CCc1ccc(Nc2c(C)cc(F)cc2F)c(CC(=O)O)c1` [Example 5(b), 5-ethyl-2-(2′,4′-difluoro-6′-methylanilino)phenylacetic acid] as the compound, how does the melting point read?
**A.** 143 to 145 °C

**Q.** With `CCc1ccc(Nc2c(C)cc(F)cc2Cl)c(CC(=O)O)c1` [Example 5(c), 5-ethyl-2-(2′-chloro-4′-fluoro-6′-methylanilino)phenylacetic acid] as the compound, how does the melting point read?
**A.** 151 to 154 °C

**Q.** For `CCc1ccc(Nc2c(C)cc(Cl)cc2Cl)c(CC(=O)OCC(=O)O)c1` [Example 6(b), carboxymethyl 5-ethyl-2-(2′,4′-dichloro-6′-methylanilino)phenylacetate], which melting point is on record?
**A.** 123 to 125 °C

**Q.** For `CCc1ccc(Nc2c(Cl)cccc2Cl)c(CC(=O)OCC(=O)O)c1` [Example 6(c), carboxymethyl 5-ethyl-2-(2′,6′-dichloroanilino)phenylacetate], which melting point is on record?
**A.** 124 to 126 °C

**Q.** For `CCc1ccc(Nc2c(F)cc(F)cc2Cl)c(CC(=O)OCC(=O)O)c1` [Example 6(d), carboxymethyl 5-ethyl-2-(2′,4′-difluoro-6′-chloroanilino)phenylacetate], which melting point is on record?
**A.** 142 to 144 °C

**Q.** With `CCc1ccc(Nc2c(F)cc(Cl)cc2Cl)c(CC(=O)OCC(=O)O)c1` [Example 6(e), carboxymethyl 5-ethyl-2-(2′,4′-dichloro-6′-fluoroanilino)phenylacetate] as the compound, how does the melting point read?
**A.** 132 to 134 °C

**Q.** With `CCc1ccc(Nc2c(F)cccc2Cl)c(CC(=O)OCC(=O)O)c1` [Example 6(f), carboxymethyl 5-ethyl-2-(2′-chloro-6′-fluoroanilino)phenylacetate] as the compound, how does the melting point read?
**A.** 106 to 108 °C

**Q.** With `Cc1ccc(Nc2c(F)cc(Cl)cc2Cl)c(CC(=O)OCC(=O)O)c1` [Example 6(g), carboxymethyl 5-methyl-2-(2′-fluoro-4′,6′-dichloroanilino)phenylacetate] as the compound, how does the melting point read?
**A.** 148 to 150 °C

**Q.** Which melting point does the source give for `Cc1ccc(Nc2c(Cl)cccc2Cl)c(CC(=O)OCC(=O)O)c1` [Example 6(h), carboxymethyl 5-methyl-2-(2′,6′-dichloroanilino)phenylacetate] here?
**A.** 125 to 126 °C

**Q.** Which melting point does the source give for `Cc1ccc(Nc2c(F)cccc2Cl)c(CC(=O)OCC(=O)O)c1` [Example 6(i), carboxymethyl 5-methyl-2-(2′-chloro-6′-fluoroanilino)phenylacetate] here?
**A.** 96 to 98 °C

**Q.** With `CCc1ccc(Nc2c(F)c(F)cc(F)c2F)c(CC(=O)OC(C)(C)C(=O)O)c1` [Example 8, 1-carboxy-1-methylethyl 5-ethyl-2-(2′,3′,5′,6′-tetrafluoroanilino)phenylacetate] as the compound, how does the melting point read?
**A.** 104 to 108 °C

**Q.** Which melting point does the source give for `Cc1ccc(Nc2c(F)cccc2C(F)(F)F)c(CC(=O)O)c1` [Example 9(a), 5-methyl-2-(2′-fluoro-6′-trifluoromethylanilino)phenylacetic acid] here?
**A.** 155 to 156 °C
